Converted amounts (≈) assume the structure as drawn.
Key:
[1] = in vivo; conditions: pig
Excerpt: 2.1.1 HPMC-based core ABPD preparation: All polymers were sieved through a 50-mesh sieve prior to their use.
The dispersion was slowly cooled with constant vigorous stirring to room temperature to obtain a solid. This solid was introduced into 8 mm flat-faced punch and die set. […] The diameter of the core was changed to 10.5 mm due to compression.
DDW and vigorously stirred until full dissolution to homogenous solution. The pH of the solution was adjusted to 5.9 by H3PO4 and KOH. The solution was cooled at room temperature for 10 min with continuous stirring.
2.1.8 In-vivo protocol of buccal administration: Following full recovery of 1 week, these (and additional) pigs underwent experiments with administration of buccal devices. The preparation of pigs for the experiments were done as previously described. Pigs were positioned on their left side. Inner side of the left cheek was gently cleaned with a gauze. […] The liquefied core was carefully collected and stored at -80° C. […] Cheeks were excised. […] The other half was fixated in 4% formaldehyde and stored for at least a month. Afterwards, these samples were trimmed, embedded in paraffin and sectioned. They were stained with Hematoxilyn and Eosin and underwent a histopathological examination. As a first step, each of the first 3 pigs received a different ABPD (as previously described): hydroxypropyl methylcellulose (HPMC) - based core, witepsol H15 - based core, or hydrogel - based core. After results evaluation, 3 additional pigs received hydrogel -based core ABPDs. Lastly, 1 pig received a hydrogel-based core ABPD with modified parameters.
The tubes were vigorously shaken for approximately 20 h. […] The supernatant was transferred to a clean tube, to which 0.3 ml of 1M NaOH and 0.7 ml 0.2 M Na2HPO4 were added. The tubes were vortex-mixed for 2 min. The pH was adjusted to 7 - 9 by NaOH and HCl. […] The supernatant was transferred to a clean tube and evaporated to dryness under vacuum. 3 ml of 0.1 M HCl were added to the tissue once again and vigorously shaken for 20 min. Afterwards, the tissue underwent the same procedure one more time with supernatant collected to respective tubes as previously. […] Samples were 2000-fold diluted in the reconstitution diluent and injected into LC-MS-MS system.
Following this analysis PK parameters were obtained.

[2] = Simulation of the results in pig to human setup; conditions: same ABPD conditions, CL difference, Eq. 2
Protocol: Plasma levels at steady state (Css) of the test substance following in-vivo buccal administration are calculated by Eq. 2:
where CL is the PK parameter of total clearance of the tested substance in-vivo.

[3] = Physicochemical properties stated in the text (log P, pKa, solubility); conditions: gelatin hydrogel, aqueous with cosolvent or surfactant or cyclodextrin, read-out: solubility in buffered hydrogel

CN1CCc2cccc3c2[C@H]1Cc1ccc(O)c(O)c1-3 [APO, apomorphine]
Cmax after removal smaller than with the four pigs [1]: 2 fold | Cmax of the peak higher than Css [1]: 4 fold | time of Cmax [1]: 8.7 h | time of the peak after ABPD removal [1]: about 45 min | Css experimentally obtained ([1]; 1.37 mg/kg): 2.15 (±0.44) ng/ml | theoretical Css predicted ([1]; 1.37 mg/kg): 2.24 ng/mL | AUC ([1]; 2 mg/kg): 32.8 ng·h/mL | AUC(0-inf) ([1]; 2 mg/kg): 50.7 ng·h/mL | Cmax ([1]; 2 mg/kg): 9.7 ng/mL | Css simulated for 70 kg human [2]: 4 to 6 ng/mL | solubility [3]: 40 mg/mL (≈ 150 mM)
